As a reminder, the Ki is the dissociation constant of the complex between target and ligand, obtained from inhibition or displacement. A higher Ki goes with weaker binding.

This test deals with T1, activated p38 (Homo sapiens, UniProt Q16539).
T1 construct: amplify the coding region of CSBP2 cDNA using a HeLa cell library; made in house; host or cells: Trichoplusia ni (Tn-368) High-Five insect cells, baculovirus (virus generated in Sf9)
T1 sequence (Q16539 whole entry): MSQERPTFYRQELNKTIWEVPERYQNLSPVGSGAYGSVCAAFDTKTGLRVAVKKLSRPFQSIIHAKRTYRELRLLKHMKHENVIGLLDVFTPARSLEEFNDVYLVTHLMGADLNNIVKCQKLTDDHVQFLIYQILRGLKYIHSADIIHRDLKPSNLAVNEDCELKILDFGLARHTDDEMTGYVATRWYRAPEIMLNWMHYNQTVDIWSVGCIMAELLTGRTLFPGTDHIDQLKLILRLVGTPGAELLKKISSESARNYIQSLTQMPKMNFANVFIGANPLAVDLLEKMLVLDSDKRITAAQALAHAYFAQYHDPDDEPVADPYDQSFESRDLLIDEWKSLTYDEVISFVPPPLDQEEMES
Briefly: p38 inhibition assay: inhibition of ATPase activity. Format: biochemical. As to conditions: ATPase activity of activated p38 (60 nM), various ATP concentrations. As to the method: B. Inhibition of ATPase Activity
This assay is carried out in the presence of 10 mM MgCl2, 25 mM β-glycerophosphate, 10% glycerol and 100 mM HEPES buffer at pH 7.6. For a typical Ki determination, the Km for ATP in the ATPase activity of activated p38 reaction is determined in the absence of inhibitor and in the presence of two concentrations of inhibitor. A stock solution is prepared containing all of the above components and activated p38 (60 nM). The stock solution is aliquotted into vials. A fixed volume of DMSO or inhibitor in DMSO (final concentration of DMSO in reaction was 2.5%) is introduced to each vial, mixed and incubated for 15 minutes at room temperature. The reaction is initiated by adding various concentrations of ATP and then incubated at 30° C. After 30 minutes, the reactions are quenched with 50 μl of EDTA (0.1 M, final concentration), pH 8.0. The product of p38 ATPase activity, ADP, is quantified by HPLC analysis.
Separation of ADP from ATP is achieved on a reversed phase column (Supelcosil, LC-18, 3 μm, part no. 5-8985) using a binary solvent gradient of following composition: Solvent A—0.1 M phosphate buffer containing 8 mM tetrabutylammonium hydrogen sulfate (Sigma Chemical Co., catalogue no. T-7158), Solvent B—Solvent A with 30% methanol.
Ki is determined from the rate data as a function of inhibitor and ATP concentrations.
The compound `O=C(c1ccc(N(C(=O)Cc2ccc(F)cc2)c2c(F)cccc2F)nc1)c1sccc1-n1cccc1` [Compound 634] yielded a Ki of 1 to 10 µM.

Consider `O=C(c1ccc(N(C(=O)OCc2ccccc2)c2c(F)cccc2F)nc1)c1ccccc1Cl` [Compound 631], for which the Ki is 1 to 10 µM.

In the case of `O=C(c1ccccc1)c1ccc(N(C(=O)CCc2ccccc2)c2c(F)cccc2F)nc1` [Compound 625], the Ki was in the range of 1 to 10 µM.

The values are drawn from patent US7271181B2, “Inhibitors of p38” (Vertex Pharmaceuticals Incorporated, priority 2001, dated 2007).
